# Reference: ChEMBL document CHEMBL4419169, “Novel Ferroportin Inhibitors” (2018)
# The source made the active and inactive calls. No cut-off for these calls is given here.
# Tests used:
# [1] = tested on: Mus musculus; test: Disease modifying capacity in mouse model of transfusion-independent beta-thalassemia intermedia assessed as decrease in RDW level at 60 mg/kg, po BID for 20 days relative to control; format: functional; set-up: scale not given: the % may be the effect or the level left
# [2] = tested on: Mus musculus; test: Decrease in serum iron in mouse model of transfusion-independent beta-thalassemia intermedia at 60 mg/kg, po BID for 20 days relative to control; format: functional; set-up: scale not given: the % may be the effect or the level left
# [3] = tested on: Mus musculus; test: Disease modifying capacity in mouse model of transfusion-independent beta-thalassemia intermedia assessed as decrease in RDW level at 20 mg/kg, po BID for 20 days relative to control; format: functional; set-up: scale not given: the % may be the effect or the level left
# [4] = tested on: Mus musculus; test: Disease modifying capacity in mouse model of transfusion-independent beta-thalassemia intermedia assessed as increase in hematocrit levels at 60 mg/kg, po BID for 20 days relative to control; format: functional
# [5] = tested on: Mus musculus; test: Disease modifying capacity in mouse model of transfusion-independent beta-thalassemia intermedia assessed as decrease in [58Fe] spleen iron content at 20 mg/kg, po BID for 20 days relative to control; format: functional; set-up: scale not given: the % may be the effect or the level left
# [6] = tested on: Mus musculus; test: Disease modifying capacity in mouse model of transfusion-independent beta-thalassemia intermedia assessed as decrease in serum erythropoietin at 60 mg/kg, po BID for 20 days relative to control; format: functional; set-up: scale not given: the % may be the effect or the level left
# [7] = tested on: Mus musculus; test: Disease modifying capacity in mouse model of transfusion-independent beta-thalassemia intermedia assessed as decrease in blood reticulocyte counts at 60 mg/kg, po BID for 20 days relative to control; format: functional; set-up: scale not given: the % may be the effect or the level left
# [8] = tested on: Mus musculus; test: Disease modifying capacity in mouse model of transfusion-independent beta-thalassemia intermedia assessed as decrease in bone marrow ROS levels level at 60 mg/kg, po BID for 20 days relative to control; format: functional; set-up: scale not given: the % may be the effect or the level left
# [9] = tested on: Mus musculus; test: Disease modifying capacity in mouse model of transfusion-independent beta-thalassemia intermedia assessed as prevention of liver [58Fe] loading at 60 mg/kg, po BID for 20 days relative to control; format: functional
# [10] = tested on: Mus musculus; test: Disease modifying capacity in mouse model of transfusion-independent beta-thalassemia intermedia assessed as decrease in serum erythropoietin at 20 mg/kg, po BID for 20 days relative to control; format: functional; set-up: scale not given: the % may be the effect or the level left
# [11] = tested on: Mus musculus; test: Induction of hypoferremia in wild type C57BL/6 mouse assessed as decrease in serum iron levels at 10 mg/kg, po measured after 3 hrs post dose; format: functional; set-up: scale not given: the % may be the effect or the level left
# [12] = tested on: Rattus norvegicus; test: Prevention of iron absorption in anemic Wistar rat model of iron absorption assessed as inhibition of increase in serum iron at 30 mg/kg, po pre-dosed 1 hr before ferrous sulfate dosing and measured 3 hours after iron dosing; format: functional
# [13] = tested on: Mus musculus; test: Induction of hypoferremia in wild type C57BL/6 mouse assessed as decrease in serum iron levels at 30 mg/kg, po measured after 3 hrs post dose; format: functional; set-up: scale not given: the % may be the effect or the level left
# [14] = tested on: Mus musculus; test: Disease modifying capacity in mouse model of transfusion-independent beta-thalassemia intermedia assessed as decrease in spleen erythroferrone-mRNA at 20 mg/kg, po BID for 20 days relative to control; format: functional; set-up: scale not given: the % may be the effect or the level left
# [15] = tested on: Mus musculus; test: Prevention of hyperferremia in iron overloaded beta2-microglobulin deficient female mouse assessed as reduction in serum iron level at 60 mg/kg, po measured after 3 hrs relative to control; format: functional; set-up: scale not given: the % may be the effect or the level left
# [16] = tested on: Mus musculus; test: Disease modifying capacity in mouse model of transfusion-independent beta-thalassemia intermedia assessed as decrease in [58Fe] spleen iron content at 60 mg/kg, po BID for 20 days relative to control; format: functional; set-up: scale not given: the % may be the effect or the level left
# [17] = tested on: Mus musculus; test: Disease modifying capacity in mouse model of transfusion-independent beta-thalassemia intermedia assessed as decrease in leukocyte counts level at 60 mg/kg, po BID for 20 days relative to control; format: functional; set-up: scale not given: the % may be the effect or the level left
# [18] = tested on: Mus musculus; test: Induction of hypoferremia in wild type C57BL/6 mouse assessed as decrease in serum iron levels at 100 mg/kg, po measured after 3 hrs post dose; format: functional; set-up: scale not given: the % may be the effect or the level left
# [19] = tested on: Mus musculus; test: Disease modifying capacity in mouse model of transfusion-independent beta-thalassemia intermedia assessed as decrease in blood reticulocyte counts at 20 mg/kg, po BID for 20 days relative to control; format: functional; set-up: scale not given: the % may be the effect or the level left
# [20] = tested on: Mus musculus; test: Decrease in serum iron in mouse model of transfusion-independent beta-thalassemia intermedia at 20 mg/kg, po BID for 20 days relative to control; format: functional; set-up: scale not given: the % may be the effect or the level left
# [21] = tested on: Rattus norvegicus; test: Prevention of iron absorption in anemic Wistar rat model of iron absorption assessed as inhibition of increase in serum iron at 10 mg/kg, po pre-dosed 1 hr before ferrous sulfate dosing and measured 3 hours after iron dosing; format: functional
# [22] = molecular target: T1, Ferroportin (Mus musculus) (UniProt Q9JHI9); test: Inhibition of ferroportin in mouse J774 cells assessed as induce ferroportin ubiquitination and degradation at […] incubated for 120 mins by immunoprecipitation assay; format: cell-based
# T1 sequence (whole entry): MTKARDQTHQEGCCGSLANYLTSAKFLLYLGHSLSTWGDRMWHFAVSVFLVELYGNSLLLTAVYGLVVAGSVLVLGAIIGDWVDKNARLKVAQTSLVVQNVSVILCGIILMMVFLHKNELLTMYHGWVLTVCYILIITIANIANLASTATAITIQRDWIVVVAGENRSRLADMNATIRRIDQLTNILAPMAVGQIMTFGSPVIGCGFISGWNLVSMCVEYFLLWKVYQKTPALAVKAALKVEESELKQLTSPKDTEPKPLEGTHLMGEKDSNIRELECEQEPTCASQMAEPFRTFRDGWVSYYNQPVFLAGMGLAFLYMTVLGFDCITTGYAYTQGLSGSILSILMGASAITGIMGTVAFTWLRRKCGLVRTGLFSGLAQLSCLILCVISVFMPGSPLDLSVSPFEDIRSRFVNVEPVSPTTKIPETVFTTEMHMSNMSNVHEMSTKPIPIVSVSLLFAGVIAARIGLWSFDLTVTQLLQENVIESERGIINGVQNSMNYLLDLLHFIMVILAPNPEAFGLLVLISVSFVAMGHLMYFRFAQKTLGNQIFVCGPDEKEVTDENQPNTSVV
# [23] = tested on: Mus musculus; test: Disease modifying capacity in mouse model of transfusion-independent beta-thalassemia intermedia assessed as increase in blood erythrocyte counts at 20 mg/kg, po BID for 20 days relative to control; format: functional
# [24] = tested on: Mus musculus; test: Disease modifying capacity in mouse model of transfusion-independent beta-thalassemia intermedia assessed as increase in blood erythrocyte counts at 60 mg/kg, po BID for 20 days relative to control; format: functional
# [25] = tested on: Mus musculus; test: Disease modifying capacity in mouse model of transfusion-independent beta-thalassemia intermedia assessed as prevention of liver [58Fe] loading at 20 mg/kg, po BID for 20 days relative to control; format: functional
# [26] = tested on: Mus musculus; test: Prevention of hyperferremia in iron overloaded beta2-microglobulin deficient female mouse assessed as reduction in serum iron level at 20 mg/kg, po measured after 3 hrs relative to control; format: functional; set-up: scale not given: the % may be the effect or the level left
# [27] = tested on: Mus musculus; test: Disease modifying capacity in mouse model of transfusion-independent beta-thalassemia intermedia assessed as increase in hematocrit levels at 20 mg/kg, po BID for 20 days relative to control; format: functional
# [28] = tested on: Rattus norvegicus; test: Prevention of iron absorption in anemic Wistar rat model of iron absorption assessed as inhibition of increase in serum iron at 3 mg/kg, po pre-dosed 1 hr before ferrous sulfate dosing and measured 3 hours after iron dosing; format: functional
# [29] = tested on: Mus musculus; test: Disease modifying capacity in mouse model of transfusion-independent beta-thalassemia intermedia assessed as decrease in leukocyte counts level at 20 mg/kg, po BID for 20 days relative to control; format: functional; set-up: scale not given: the % may be the effect or the level left
# [30] = molecular target: T1, Ferroportin (Mus musculus); test: Inhibition of ferroportin in mouse J774 cells assessed as induce ferroportin ubiquitination and degradation at […] incubated for 10 mins by immunoprecipitation assay; format: cell-based
# [31] = tested on: Mus musculus; test: Prevention of hyperferremia in iron overloaded beta2-microglobulin deficient male mouse assessed as reduction in serum iron level at 20 mg/kg, po measured after 3 hrs relative to control; format: functional; set-up: scale not given: the % may be the effect or the level left
# [32] = molecular target: T1, Ferroportin (Mus musculus); test: Inhibition of ferroportin in mouse J774 cells assessed as induce ferroportin ubiquitination and degradation at 0.05 uM incubated for 120 mins by immunoprecipitation assay; format: cell-based
# [33] = molecular target: T1, Ferroportin (Mus musculus); test: Inhibition of ferroportin in mouse J774 cells assessed as induce ferroportin ubiquitination and degradation at 0.05 uM incubated for 10 mins by immunoprecipitation assay; format: cell-based
# [34] = molecular target: T1, Ferroportin (Mus musculus); test: Inhibition of ferroportin in mouse J774 cells assessed as induce ferroportin ubiquitination and degradation at 1.5 uM incubated for 120 mins by immunoprecipitation assay; format: cell-based
# [35] = molecular target: T1, Ferroportin (Mus musculus); test: Inhibition of ferroportin in mouse J774 cells assessed as induce ferroportin ubiquitination and degradation at 1.5 uM incubated for 10 mins by immunoprecipitation assay; format: cell-based
# [36] = molecular target: T1, Ferroportin (Mus musculus); test: Inhibition of ferroportin in mouse J774 cells assessed as induce ferroportin ubiquitination and degradation at 0.3 uM incubated for 120 mins by immunoprecipitation assay; format: cell-based
# [37] = tested on: Mus musculus; test: Prevention of hyperferremia in iron overloaded beta2-microglobulin deficient mouse assessed as reduction in serum iron level at 50 mg/kg, po measured after 3 hrs relative to control; format: functional, organism-based
# [38] = tested on: Mus musculus; test: Induction of hypoferremia in orally dosed wild type C57BL/6 mouse assessed as decrease in serum iron levels measured after 3 hrs post dose; format: functional, organism-based
# [39] = molecular target: T1, Ferroportin (Mus musculus); test: Inhibition of ferroportin in mouse J774 cells assessed as induce ferroportin ubiquitination and degradation at 0.3 uM incubated for 10 mins by immunoprecipitation assay; format: cell-based
# [40] = tested on: Mus musculus; test: Disease modifying capacity in mouse model of transfusion-independent beta-thalassemia intermedia assessed as decrease in bone marrow ROS levels level at 60 mg/kg, po BID for 27 days relative to control; format: functional; set-up: scale not given: the % may be the effect or the level left
# [41] = molecular target: T1, Ferroportin (Mus musculus); test: Inhibition of ferroportin in mouse J774 cells assessed as induce ferroportin ubiquitination and degradation at 0.1 uM incubated for 120 mins by immunoprecipitation assay; format: cell-based
# [42] = molecular target: T1, Ferroportin (Mus musculus); test: Inhibition of ferroportin in mouse J774 cells assessed as induce ferroportin ubiquitination and degradation at 0.1 uM incubated for 10 mins by immunoprecipitation assay; format: cell-based
# [43] = tested on: Mus musculus; test: Prevention of hyperferremia in iron overloaded beta2-microglobulin deficient male mouse assessed as reduction in serum iron level at 60 mg/kg, po measured after 3 hrs relative to control; format: functional; set-up: scale not given: the % may be the effect or the level left
smiles,measurement,setting,value
O=C(NCc1ncccc1F)c1cnc(CCNCCc2nc3ccccc3[nH]2)o1,Activity,[1],16%
same,Activity,[2],66%
same,Activity,[3],3%
same,Activity,[4],4%
same,Activity,[5],14%
same,Activity,[6],78%
same,Activity,[7],39%
same,Activity,[8],45%
same,Activity,[9],40%
same,Activity,[10],64%
same,Activity,[11],0%
same,inhibition in vivo at 30 mg/kg,[12],64.9%
same,Activity,[13],28%
same,Activity,[14],82%
same,Activity,[15],52%
same,Activity,[16],48%
same,Activity,[17],44%
same,Activity,[18],51%
same,Activity,[19],8%
same,Activity,[20],49%
same,inhibition in vivo at 10 mg/kg,[21],42.6%
same,inhibition,[22],Active
same,Activity,[23],4%
same,Activity,[24],8%
same,Activity,[25],12%
same,Activity,[26],31%
same,Activity,[27],0%
same,inhibition in vivo at 3 mg/kg,[28],2.1%
same,Activity,[29],32%
same,inhibition,[30],Active
same,Activity,[31],31%
O=C(NCc1ncccc1F)c1coc(CCN(CCc2nc3ccccc3[nH]2)CCc2nc3ccccc3[nH]2)n1,inhibition,[32],Active
same,inhibition,[33],Active
O=C(NCc1ncccc1F)c1cnn(C2CN(CCc3nc4ccccc4[nH]3)C2)c1,inhibition,[34],Active
same,inhibition,[35],Active
O=C(NCc1ncccc1F)c1csc(CCNCCc2nc3ccccc3[nH]2)n1,inhibition,[36],Active
same,Activity,[37],Active
same,Activity,[38],Dose-dependent effect
same,inhibition,[39],Active
Cl.Cl.Cl.O=C(NCc1ncccc1F)c1coc(CCNCCc2nc3ccccc3[nH]2)n1 [VAMIFEPORT HYDROCHLORIDE],Activity,[40],75%
same,inhibition,[41],Active
same,Activity,[15],74%
same,inhibition,[42],Active
same,Activity,[43],83%
